Literature values in paper doi:10.1101/2025.09.30.679517v1 (bioRxiv, 2025).

Details: human, in vivo, po

COc1ccc2c(c1)[C@]13CCCC[C@@H]1[C@H](C2)N(C)CC3 [dextromethorphan]
primary endpoints: reached all primary endpoints
tolerability: well-tolerated by patients
